Reference: PubChem BioAssay AID2060502 (Molecular Pharmacology Branch, DTP, NCI, 2025)

Tested on: 885724-159-R-J1-PDC complex spheroid viability
Assay: Anticancer human tumor 885724-159-R-J1-PDC patient-derived pancreatic adenocarcinoma cell line growth inhibition [GQUAD]
Details: for IC50: curve of first compound; for viability, T/C: stronger effect = lower value; active = viability on the fitted dose curve at most 10% of control; inactive = the rest
Summary of the method: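 Multi-cell-type spheroids of tumor cells with HUVEC and mesenchymal stem cells, treated with drug combinations. Concentrations descend in half-log steps from near clinical Cmax, or from 10 microM where Cmax is unknown; viability read-out.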

[1] = second compound 0.0316 µM, first compound 0.0316 µM
[2] = second compound 0.0316 µM, first compound 0.1 µM
[3] = second compound 0.0316 µM, first compound 0.316 µM
[4] = second compound 0.0316 µM, first compound 1 µM
[5] = second compound 0.0316 µM, first compound 3.16 µM
[6] = second compound 0.0316 µM, first compound 10 µM
[7] = second compound 0.1 µM, first compound 0.0316 µM
[8] = second compound 0.1 µM, first compound 0.1 µM
[9] = second compound 0.1 µM, first compound 0.316 µM
[10] = second compound 0.1 µM, first compound 1 µM
[11] = second compound 0.1 µM, first compound 3.16 µM
[12] = second compound 0.1 µM, first compound 10 µM
[13] = second compound 0.316 µM, first compound 0.0316 µM
[14] = second compound 0.316 µM, first compound 0.1 µM
[15] = second compound 0.316 µM, first compound 0.316 µM
[16] = second compound 0.316 µM, first compound 1 µM
[17] = second compound 0.316 µM, first compound 3.16 µM
[18] = second compound 0.316 µM, first compound 10 µM
[19] = second compound 1 µM, first compound 0.0316 µM
[20] = second compound 1 µM, first compound 0.1 µM
[21] = second compound 1 µM, first compound 0.316 µM
[22] = second compound 1 µM, first compound 1 µM
[23] = second compound 1 µM, first compound 3.16 µM
[24] = second compound 1 µM, first compound 10 µM
[25] = second compound 3.16 µM, first compound 0.0316 µM
[26] = second compound 3.16 µM, first compound 0.1 µM
[27] = second compound 3.16 µM, first compound 0.316 µM
[28] = second compound 3.16 µM, first compound 1 µM
[29] = second compound 3.16 µM, first compound 3.16 µM
[30] = second compound 3.16 µM, first compound 10 µM
[31] = second compound 10 µM, first compound 0.0316 µM
[32] = second compound 10 µM, first compound 0.1 µM
[33] = second compound 10 µM, first compound 0.316 µM
[34] = second compound 10 µM, first compound 1 µM
[35] = second compound 10 µM, first compound 3.16 µM
[36] = second compound 10 µM, first compound 10 µM
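Also: spheroids exposed to agents for seven days before readout.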
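For viability, T/C in this document: percent of vehicle control viability where 100% = DMSO wells.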

C#Cc1c(F)ccc2cc(O)cc(-c3ncc4c(N5CC6CCC(C5)N6)nc(OCC56CCCN5CC(F)C6)nc4c3F)c12 (stereo unspecified) + Cc1[nH]c2ccc(F)cc2c1-c1nc2c3cccnc3c3ncccc3c2[nH]1
inactive: viability, T/C [1] 97% | viability, T/C [2] 89.2% | viability, T/C [3] 90.3% | viability, T/C [4] 76.1% | viability, T/C [5] 57.5% | viability, T/C [6] 23.4% | viability, T/C [7] 101% | viability, T/C [8] 97.8% | viability, T/C [9] 102% | viability, T/C [10] 87.4% | viability, T/C [11] 54.6% | viability, T/C [12] 24.9% | viability, T/C [13] 94.5% | viability, T/C [14] 80.4% | viability, T/C [15] 85.4% | viability, T/C [16] 62.9% | viability, T/C [17] 63.1% | viability, T/C [18] 28% | viability, T/C [19] 72.5% | viability, T/C [20] 69.2% | viability, T/C [21] 75% | viability, T/C [22] 59.4% | viability, T/C [23] 54.2% | viability, T/C [24] 29.5% | viability, T/C [25] 18.4% | viability, T/C [31] 63.1% | viability, T/C [32] 75.8% | viability, T/C [33] 66% | viability, T/C [34] 61.2% | viability, T/C [35] 63.2% | viability, T/C [36] 21.7%
4.07 µM: IC50 (second compound 0.316 µM)
3.55 µM: IC50 (second compound 1 µM)
3.75 µM: IC50 (second compound 0.1 µM)
4.05 µM: IC50 (second compound 0.0316 µM)
4.5 µM: IC50 (second compound 10 µM)
< 0.0316 µM: IC50 (second compound 3.16 µM)
active: viability, T/C [26] 8.81% | viability, T/C [27] 12.7% | viability, T/C [28] 11.5% | viability, T/C [29] 9.79% | viability, T/C [30] 6.07%

C=CCn1c(=O)c2cnc(Nc3ccc(N4CCN(C)CC4)cc3)nc2n1-c1cccc(C(C)(C)O)n1 + Cc1[nH]c2ccc(F)cc2c1-c1nc2c3cccnc3c3ncccc3c2[nH]1
0.558 µM: IC50 (second compound 1 µM)
inactive: viability, T/C [1] 88.7% | viability, T/C [2] 87.8% | viability, T/C [3] 71.1% | viability, T/C [4] 63.7% | viability, T/C [5] 68.8% | viability, T/C [6] 73.9% | viability, T/C [7] 90.3% | viability, T/C [8] 90% | viability, T/C [9] 84.3% | viability, T/C [10] 79.6% | viability, T/C [11] 63.5% | viability, T/C [12] 71.8% | viability, T/C [13] 83.1% | viability, T/C [14] 83.1% | viability, T/C [15] 68.7% | viability, T/C [16] 57.6% | viability, T/C [17] 74% | viability, T/C [18] 67.1% | viability, T/C [19] 70.9% | viability, T/C [20] 55.3% | viability, T/C [21] 52.1% | viability, T/C [22] 49.9% | viability, T/C [23] 50.9% | viability, T/C [24] 41.3% | viability, T/C [25] 12.9% | viability, T/C [31] 63.5% | viability, T/C [32] 58.5% | viability, T/C [33] 47.3% | viability, T/C [34] 47% | viability, T/C [35] 50% | viability, T/C [36] 38.1%
< 0.0316 µM: IC50 (second compound 3.16 µM)
> 10 µM: IC50 (second compound 0.0316 µM) | IC50 (second compound 0.1 µM) | IC50 (second compound 0.316 µM)
0.455 µM: IC50 (second compound 10 µM)
active: viability, T/C [26] 8.26% | viability, T/C [27] 11.1% | viability, T/C [28] 5.9% | viability, T/C [29] 9.96% | viability, T/C [30] 8.31%

CC(C)(O)C1CCC(Nc2ccc3ncc(-c4cccc(C(F)(F)F)c4)n3n2)CC1 (stereo unspecified) + Cc1[nH]c2ccc(F)cc2c1-c1nc2c3cccnc3c3ncccc3c2[nH]1
2.76 µM: IC50 (second compound 0.1 µM)
< 0.0316 µM: IC50 (second compound 3.16 µM)
active: viability, T/C [26] 8.78% | viability, T/C [27] 9.83% | viability, T/C [28] 9.8% | viability, T/C [29] 7.07% | viability, T/C [30] 7.05%
2.5 µM: IC50 (second compound 0.0316 µM)
inactive: viability, T/C [1] 96.3% | viability, T/C [2] 93.1% | viability, T/C [3] 83.1% | viability, T/C [4] 84.6% | viability, T/C [5] 37.3% | viability, T/C [6] 44.7% | viability, T/C [7] 97.1% | viability, T/C [8] 91.6% | viability, T/C [9] 77.4% | viability, T/C [10] 72.1% | viability, T/C [11] 41.4% | viability, T/C [12] 41.2% | viability, T/C [13] 90.5% | viability, T/C [14] 78.3% | viability, T/C [15] 82.8% | viability, T/C [16] 55.5% | viability, T/C [17] 40.7% | viability, T/C [18] 38.3% | viability, T/C [19] 77% | viability, T/C [20] 58.2% | viability, T/C [21] 57.2% | viability, T/C [22] 47.6% | viability, T/C [23] 33.8% | viability, T/C [24] 29.6% | viability, T/C [25] 19.3% | viability, T/C [31] 67.9% | viability, T/C [32] 59% | viability, T/C [33] 57.7% | viability, T/C [34] 50.5% | viability, T/C [35] 28.2% | viability, T/C [36] 35.4%
1.52 µM: IC50 (second compound 0.316 µM)
0.538 µM: IC50 (second compound 1 µM)
1.03 µM: IC50 (second compound 10 µM)
